Tests used:
Type in all cases: functional
Ctenocephalides felis [1] = assay: Parasiticidal activity against Ctenocephalides felis assessed as mortality after 24 hrs by cat flea assay; parameters: concentration or dose not given beside the values
Ctenocephalides felis [2] = assay: Parasiticidal activity against Ctenocephalides felis by cat flea assay
Rhipicephalus sanguineus [3] = assay: Parasiticidal activity against Rhipicephalus sanguineus assessed per tick by brown dog tick assay
Rhipicephalus sanguineus [4] = assay: Parasiticidal activity against Rhipicephalus sanguineus assessed as mortality after 24 hrs by brown dog tick assay; parameters: concentration or dose not given beside the values
Haemonchus contortus = assay: Parasiticidal activity against Haemonchus contortus by larval assay

Row | SMILES | Activity (Ctenocephalides felis [1]) | LC50 (Ctenocephalides felis [2]) | LD50 (Rhipicephalus sanguineus [3]) | Activity (Rhipicephalus sanguineus [4]) | LD99 (Haemonchus contortus)
1 | C/C(=N\OC(C)(C)C)c1cc(Cl)ccc1NS(=O)(=O)C(F)(F)F | 100% | 41 ng/cm2 | 1.4 µg | 92% | 16 µM
2 | O=S(=O)(Nc1ccc(Cl)cc1/C=N/OCc1ccc(Cl)c(Cl)c1)C(F)(F)F | 42% | – | – | – | 1.4 µM
3 | O=S(=O)(Nc1ccc(Cl)cc1/C(=N/OC1CCCCC1)c1ccccc1)C(F)(F)F | 12% | – | – | 45% | –
4 | C/C(=N\OCc1ccc(Cl)cc1)c1ccc(C(F)(F)F)cc1NS(=O)(=O)C(F)(F)F | 100% | – | – | 27% | –
5 | CC/C(=N\OCC1CCCC1)c1cc(Cl)ccc1NS(=O)(=O)C(F)(F)F | 97% | – | – | 90% | –
6 | CC/C(=N\OCCOC)c1cc(Cl)ccc1NS(=O)(=O)C(F)(F)F | 100% | – | – | 95% | –
7 | CC/C(=N\OC)c1cc(Cl)ccc1NS(=O)(=O)C(F)(F)F | 100% | 15 ng/cm2 | 0.89 µg | 95% | 16 µM
8 | CC/C(=N\OCc1ccc(C(F)(F)F)cc1)c1cc(Cl)ccc1NS(=O)(=O)C(F)(F)F | 98% | 17 ng/cm2 | 2.7 µg | 90% | 0.84 µM
9 | CCO/N=C(\C)c1cccc(OC)c1NS(=O)(=O)C(F)(F)F | 45% | – | – | – | >15 µM
10 | CC/C(=N\OCc1cccs1)c1cc(Cl)ccc1NS(=O)(=O)C(F)(F)F | 100% | 7 ng/cm2 | 2.5 µg | 70% | 35 µM
11 | C/C(=N\OC1CCCC1)c1cc(Cl)ccc1NS(=O)(=O)C(F)(F)F | 100% | – | – | 100% | –
12 | C/C(=N\OCC1CC1)c1cc(Cl)ccc1NS(=O)(=O)C(F)(F)F | 100% | 5 ng/cm2 | 1 µg | 100% | –
13 | C/C(=N\Oc1ccc(Cl)cc1)c1cc(Cl)ccc1NS(=O)(=O)C(F)(F)F | 90% | – | – | – | 1 µM
14 | C#CCO/N=C(\C)c1cc(Cl)ccc1NS(=O)(=O)C(F)(F)F | 100% | 11 ng/cm2 | 0.99 µg | 100% | –
15 | CCO/N=C(\C)c1cc(Cl)ccc1NS(=O)(=O)C(F)(F)F | 100% | – | – | 85% | >15 µM
16 | CC/C(=N\OCc1cccc(Cl)c1Cl)c1cc(Cl)ccc1NS(=O)(=O)C(F)(F)F | 63% | – | – | – | 0.63 µM
17 | C#CCO/N=C(\CC)c1cc(Cl)ccc1NS(=O)(=O)C(F)(F)F | 100% | 27 ng/cm2 | 0.86 µg | 100% | 20 µM
18 | C/C(=N\Oc1cccc(Cl)c1)c1cc(Cl)ccc1NS(=O)(=O)C(F)(F)F | 100% | – | – | 47% | 3.8 µM
19 | C/C(=N\OC1CCCCC1)c1cc(Cl)ccc1NS(=O)(=O)C(F)(F)F | 100% | – | – | 100% | –

Row | SMILES | Activity (Ctenocephalides felis [1]) | LC50 (Ctenocephalides felis [2]) | LD50 (Rhipicephalus sanguineus [3]) | Activity (Rhipicephalus sanguineus [4]) | LD99 (Haemonchus contortus)
20 | CC/C(=N\OCC1CCCCC1)c1ccc(C(F)(F)F)cc1NS(=O)(=O)C(F)(F)F | 97% | – | – | 17% | –
21 | CO/N=C(\C)c1cc(Cl)ccc1NS(=O)(=O)C(F)(F)F | 100% | – | – | 93% | –
22 | CCC/C(=N\OCC1CCCCC1)c1cc(Cl)ccc1NS(=O)(=O)C(F)(F)F | 70% | – | – | – | 11 µM
23 | CC/C(=N\OC1CCCCC1)c1cc(Cl)ccc1NS(=O)(=O)C(F)(F)F | 100% | – | 5.7 µg | 100% | –
24 | C/C(=N\OCc1ccc(Cl)cc1)c1cc(Cl)ccc1NS(=O)(=O)C(F)(F)F | 100% | – | – | 72% | 3 µM
25 | CCO/N=C(\C)c1ccccc1NS(=O)(=O)C(F)(F)F | 92% | – | – | 90% | >16 µM
26 | O=S(=O)(Nc1ccc(Cl)cc1/C(=N/OCC1CCCCC1)c1ccccc1)C(F)(F)F | 8% | – | – | 52% | –
27 | C=CCO/N=C(\C)c1cc(Cl)ccc1NS(=O)(=O)C(F)(F)F | 100% | – | – | 100% | –
28 | CC(C)/C(=N\Oc1ccc(F)cc1)c1cc(Cl)ccc1NS(=O)(=O)C(F)(F)F | 100% | – | – | 42% | –
29 | CC/C(=N\OCC(F)(F)F)c1cc(Cl)ccc1NS(=O)(=O)C(F)(F)F | 100% | – | – | 80% | –
30 | CC/C(=N\OCc1ccc(Cl)c(Cl)c1)c1cc(Cl)ccc1NS(=O)(=O)C(F)(F)F | 100% | – | – | – | 1.3 µM
31 | C/C(=N\OC1CCCCC1)c1ccc(C(F)(F)F)cc1NS(=O)(=O)C(F)(F)F | 4% | – | – | – | –
32 | C/C(=N\Oc1ccc(Br)cc1)c1cc(Cl)ccc1NS(=O)(=O)C(F)(F)F | 91% | – | – | – | 0.87 µM
33 | CC/C(=N\OCc1ccc(Br)cc1)c1cc(Cl)ccc1NS(=O)(=O)C(F)(F)F | 78% | – | – | 58% | 1.8 µM
34 | CC/C(=N\Oc1cccc(Cl)c1)c1cc(Cl)ccc1NS(=O)(=O)C(F)(F)F | 100% | – | – | – | 3.6 µM
35 | C/C(=N\Oc1cccc(C(F)(F)F)c1)c1cc(Cl)ccc1NS(=O)(=O)C(F)(F)F | 96% | – | – | – | 0.83 µM
36 | CCO/N=C(\C)c1ccc(F)cc1NS(=O)(=O)C(F)(F)F | 100% | – | – | 8% | >15 µM
37 | O=S(=O)(Nc1ccc(Cl)cc1/C(=N/Oc1ccc(F)cc1)c1ccccc1)C(F)(F)F | 21% | – | – | – | –
38 | CC/C(=N\Oc1ccc(Br)cc1)c1cc(Cl)ccc1NS(=O)(=O)C(F)(F)F | 78% | – | – | – | 3.7 µM

Row | SMILES | Activity (Ctenocephalides felis [1]) | LC50 (Ctenocephalides felis [2]) | LD50 (Rhipicephalus sanguineus [3]) | Activity (Rhipicephalus sanguineus [4]) | LD99 (Haemonchus contortus)
39 | CCC/C(=N\OCc1ccc(Cl)cc1Cl)c1cc(Cl)ccc1NS(=O)(=O)C(F)(F)F | 88% | – | – | – | 3.6 µM
40 | CC/C(=N\OCc1ccc(Cl)cc1)c1ccc(C(F)(F)F)cc1NS(=O)(=O)C(F)(F)F | 100% | – | – | 25% | –
41 | CC/C(=N\Oc1ccc(Cl)cc1)c1cc(Cl)ccc1NS(=O)(=O)C(F)(F)F | 100% | 51 ng/cm2 | – | 95% | 1 µM
42 | CC/C(=N\Oc1ccc(Cl)cc1)c1ccc(C(F)(F)F)cc1NS(=O)(=O)C(F)(F)F | 100% | – | – | 17% | –
43 | CCC/C(=N\Oc1ccc(F)cc1)c1cc(Cl)ccc1NS(=O)(=O)C(F)(F)F | 36% | – | – | – | –
44 | CCC/C(=N\OC1CCCCC1)c1cc(Cl)ccc1NS(=O)(=O)C(F)(F)F | 43% | – | – | – | –
45 | COCCO/N=C(\C)c1cc(Cl)ccc1NS(=O)(=O)C(F)(F)F | 100% | 12 ng/cm2 | 0.71 µg | 100% | –
46 | CC/C(=N\Oc1ccc(Cl)c(Cl)c1)c1cc(Cl)ccc1NS(=O)(=O)C(F)(F)F | 99% | 6 ng/cm2 | – | – | 1.9 µM
47 | N#Cc1nn(-c2c(Cl)cc(C(F)(F)F)cc2Cl)c(N)c1[S+]([O-])C(F)(F)F (stereo not given) [FIPRONIL] | – | 0.1 ng/cm2 | – | – | –
48 | CC/C(=N\Oc1cccc(C(F)(F)F)c1)c1cc(Cl)ccc1NS(=O)(=O)C(F)(F)F | 71% | – | – | – | 2 µM
49 | CC/C(=N\OC(C)(C)C)c1cc(Cl)ccc1NS(=O)(=O)C(F)(F)F | 100% | 43 ng/cm2 | 1.5 µg | 90% | –
50 | CC1(C)C(C=C(Cl)Cl)C1C(=O)OCc1cccc(Oc2ccccc2)c1 (stereo not given) | – | – | 0.14 µg | – | –
51 | C/C(=N\OC(C)C)c1cc(Cl)ccc1NS(=O)(=O)C(F)(F)F | 100% | – | – | 95% | –
52 | C/C(=N\OCC1CCCCC1)c1cc(Cl)ccc1NS(=O)(=O)C(F)(F)F | 96% | – | – | 100% | –
53 | c1ccc([C@H]2CN3CCSC3=N2)cc1 [LEVAMISOLE] | – | – | – | – | 0.71 µM
54 | CC/C(=N\OCc1ccccc1C(F)(F)F)c1cc(Cl)ccc1NS(=O)(=O)C(F)(F)F | 96% | 36 ng/cm2 | – | 31% | 2.7 µM
55 | CC/C(=N\OC(C)C)c1cc(Cl)ccc1NS(=O)(=O)C(F)(F)F | 100% | – | – | 100% | –
56 | C/C(=N\Oc1ccc(Cl)c(Cl)c1)c1cc(Cl)ccc1NS(=O)(=O)C(F)(F)F | 71% | – | – | – | 1.6 µM
